One series deals with T1, human H4 receptor (Homo sapiens, UniProt Q9H3N8).
T1 construct: expressed in transfected cells
Briefly: [3H]Histamine binding on membranes of CHO cells stably expressing human H4 receptor. An outline of the steps:
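Nonspecific signal was taken as that remaining with 10 μM JNJ 7777120 present. Assays contained 20 μg CHO-derived hH4 membrane protein in Tris/HCl–EDTA buffer (pH 7.4) and were terminated on polyethyleneimine-soaked filters, with bound tritium quantified by scintillation.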

24 molecules from patent US8802664B2 (Bioproject, priority 2010, dated 2014) can be followed below.

T1 sequence (Q9H3N8 whole entry): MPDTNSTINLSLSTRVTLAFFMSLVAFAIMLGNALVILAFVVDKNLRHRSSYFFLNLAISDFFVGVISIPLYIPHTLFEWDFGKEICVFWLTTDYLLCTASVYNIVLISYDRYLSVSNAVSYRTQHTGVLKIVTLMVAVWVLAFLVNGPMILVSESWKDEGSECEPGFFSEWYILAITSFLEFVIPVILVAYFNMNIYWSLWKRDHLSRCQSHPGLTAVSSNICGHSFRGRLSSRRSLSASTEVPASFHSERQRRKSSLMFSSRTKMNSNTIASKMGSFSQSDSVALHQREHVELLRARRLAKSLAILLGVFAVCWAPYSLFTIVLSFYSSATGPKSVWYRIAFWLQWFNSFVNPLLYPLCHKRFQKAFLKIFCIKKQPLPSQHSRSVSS

Turning to `CN1CCC(NC(c2cccc(OCc3cccc(F)c3F)c2)c2nc3ccccc3[nH]2)CC1` (stereo not drawn) [Example 162, {(1H-benzimidazol-2-yl)[3-(2,3-difluoro-benzyloxy)phenyl]methyl}(1-methylpiperidin-4-yl)amine], the melting point came to 151 °C. The Ki or IC50 activity class on human H4 receptor was below 30 nM.

`Cc1cccc(C(OC2CCN(C)CC2)c2nc3ccccc3[nH]2)c1` (stereo not drawn) [Example 164, 2-[(1-methylpiperidin-4-yloxy)(m-tolyl)methyl]-1H-benzimidazole] showed a melting point of 119 °C. For the same molecule, the Ki or IC50 activity class on human H4 receptor is below 300 nM.

`CN1CCC(OC(c2ccccc2)c2nc3cc(Cl)c(Cl)cc3[nH]2)CC1` (stereo not drawn) [Example 165, 5,6-dichloro-2-[(1-methylpiperidin-4-yloxy)phenylmethyl]-1H-benzimidazole] gave a melting point of 221 °C. On human H4 receptor, the Ki or IC50 activity class is below 300 nM.

The molecule `CN1CCC(OC(c2ccccc2)c2nc3cc(F)ccc3[nH]2)CC1` (stereo not drawn) [Example 166, 5-fluoro-2-[(1-methylpiperidin-4-yloxy)phenylmethyl]-1H-benzimidazole] came in with a melting point of 134 °C. At human H4 receptor, the Ki or IC50 activity class was below 30 nM.

With `CN1CCC(OC(c2nc3ccccc3[nH]2)c2ccccc2F)CC1` (stereo not drawn) [Example 167, 2-[(2-fluorophenyl)(1-methylpiperidin-4-yloxy)methyl]-1H-benzimidazole], the melting point is 181 °C. Further, the Ki or IC50 activity class at human H4 receptor was below 30 nM.

On to `CN1CCC(OC(c2ccccc2)c2nc3cc(Br)ccc3[nH]2)CC1` (stereo not drawn) [Example 170, 5-bromo-2-[(1-methylpiperidin-4-yloxy)phenylmethyl]-1H-benzimidazole], for which the melting point was determined as 143 °C. In addition, the Ki or IC50 activity class at human H4 receptor is below 300 nM.

On to `CN1CCC(NC(c2cccc(OCCCC(F)(F)F)c2)c2nc3ccccc3[nH]2)CC1` (stereo not drawn) [Example 175, {(1H-benzimidazol-2-yl)[3-(4,4,4-trifluoro-butoxy)phenyl]methyl}(1-methylpiperidin-4-yl)amine], for which the melting point turned out to be 94 °C. In addition, the Ki or IC50 activity class on human H4 receptor is below 300 nM.

For `Cc1ccc(C(OC2CCN(C)CC2)c2nc3ccccc3[nH]2)cc1` (stereo not drawn) [Example 177, 2-[(1-methylpiperidin-4-yloxy)-p-tolyl-methyl]-1H-benzimidazole], the melting point worked out at 102 °C. The same molecule showed a Ki or IC50 activity class on human H4 receptor below 300 nM.

As to `CN1CCC(OC(c2ccc(F)cc2)c2nc3ccccc3[nH]2)CC1` (stereo not drawn) [Example 179, 2-[(4-fluorophenyl)(1-methylpiperidin-4-yloxy)methyl]-1H-benzimidazole], the melting point came to 131 °C. In addition, the Ki or IC50 activity class at human H4 receptor is below 300 nM.

`CN1CCC(OC(c2cccc(-c3ccc(OC(F)(F)F)cc3)c2)c2nc3ccccc3[nH]2)CC1` (stereo not drawn) [Example 182, 2-[(1-methylpiperidin-4-yloxy)(4′-trifluoromethoxybiphenyl-3-yl)methyl]-1H-benzimidazole] showed a melting point of 90 °C. On human H4 receptor, the Ki or IC50 activity class is below 30 nM.

In turn, `COc1ccc(-c2cccc(C(OC3CCN(C)CC3)c3nc4ccccc4[nH]3)c2)cc1` (stereo not drawn) [Example 183, 2-[(4′-methoxybiphenyl-3-yl)(1-methylpiperidin-4-yloxy)methyl]-1H-benzimidazole] showed a melting point of 92 °C. Further, the Ki or IC50 activity class on human H4 receptor was below 300 nM.

`CN1CCC(OC(c2cccc(-c3ccc4c(c3)OCO4)c2)c2nc3ccccc3[nH]2)CC1` (stereo not drawn) [Example 184, 2-[(3-benzo[1,3]dioxol-5-ylphenyl)(1-methylpiperidin-4-yloxy)methyl]-1H-benzimidazole] gave a melting point of 95 °C. For the same molecule, at human H4 receptor, the Ki or IC50 activity class is below 300 nM.

For `CN1CCC(OC(c2cccc(C#CCO)c2)c2nc3ccccc3[nH]2)CC1` (stereo not drawn) [Example 190, 3-{3-[(1H-benzimidazol-2-yl)(1-methylpiperidin-4-yloxy)methyl]phenyl}prop-2-yn-1-ol], the melting point is 117 to 120 °C. Also, the Ki or IC50 activity class on human H4 receptor is below 300 nM.

Turning to `CN1CCC(OC(c2cccc(C#CCCO)c2)c2nc3ccccc3[nH]2)CC1` (stereo not drawn) [Example 191, 4-{3-[(1H-benzimidazol-2-yl)(1-methylpiperidin-4-yloxy)methyl]phenyl}but-3-yn-1-ol], the melting point lay within 104 to 108 °C. Also, on human H4 receptor, the Ki or IC50 activity class is below 300 nM.

With `CN1CCC(OC(c2cccc(C#CCCCO)c2)c2nc3ccccc3[nH]2)CC1` (stereo not drawn) [Example 192, 5-{3-[(1H-benzimidazol-2-yl)(1-methylpiperidin-4-yloxy)methyl]phenyl}pent-4-yn-1-ol], the melting point was 85 °C. Besides, the Ki or IC50 activity class at human H4 receptor was below 300 nM.

For the molecule `Cc1ccccc1C(OC1CCN(C)CC1)c1nc2ccccc2[nH]1` (stereo not drawn) [Example 193, 2-[(1-methylpiperidin-4-yloxy)-o-tolyl-methyl]-1H-benzimidazole], the melting point stood at 190 °C. The Ki or IC50 activity class on human H4 receptor is below 300 nM.

On to `CN1CCC(OC(c2cccc(C#CCN)c2)c2nc3ccccc3[nH]2)CC1` (stereo not drawn) [Example 194, 3-{3-[(1H-benzimidazol-2-yl)(1-methylpiperidin-4-yloxy)methyl]phenyl}prop-2-ynylamine], for which the melting point is 101 °C. The Ki or IC50 activity class on human H4 receptor was below 300 nM.

Turning to `CN1CCC(OC(c2ccccc2)c2nc3cccc(N)c3[nH]2)CC1` (stereo not drawn) [Example 200, 2-[(1-methylpiperidin-4-yloxy)phenyl-methyl]-3H-benzimidazol-4-ylamine], the melting point worked out at 96.7 °C. Moreover, the Ki or IC50 activity class at human H4 receptor is below 300 nM.

In turn, `CN1CCC(OC(c2ccc(Br)cc2)c2nc3ccccc3[nH]2)CC1` (stereo not drawn) [Example 204, 2-[(4-bromophenyl)(1-methylpiperidin-4-yloxy)methyl]-1H-benzimidazole] gave a melting point of 122 °C. At human H4 receptor, this molecule returned a Ki or IC50 activity class below 300 nM.

The molecule `CN1CCC(OC(c2ccccc2)c2nc3cccc(O)c3[nH]2)CC1` (stereo not drawn) [Example 210, 2-[(1-methylpiperidin-4-yloxy)phenylmethyl]-3H-benzimidazol-4-ol] gave a melting point of 170.5 °C. Also, the Ki or IC50 activity class at human H4 receptor is below 1000 nM.

`CN1CCC(OC(c2cccc(-c3cnc(O)nc3)c2)c2nc3ccccc3s2)CC1` (stereo not drawn) [Example 214, 5-{3-[benzothiazol-2-yl(1-methylpiperidin-4-yloxy)methyl]phenyl}pyrimidin-2-ol] gave a melting point of 170 °C. This molecule also showed a Ki or IC50 activity class on human H4 receptor below 300 nM.

`CN1CCC(OC(c2cccc(-c3cncnc3)c2)c2nc3ccccc3s2)CC1` (stereo not drawn) [Example 216, 2-[(1-methylpiperidin-4-yloxy)(3-pyrimidin-5-yl-phenyl)methyl]benzothiazole] came in with a melting point of 85 °C. The Ki or IC50 activity class at human H4 receptor was below 300 nM.

As for `C=Cc1cccc(C(OC2CCN(C)CC2)c2nc3ccccc3s2)c1` (stereo not drawn) [Example 218, 2-[(1-methylpiperidin-4-yloxy)(3-vinyl-phenyl)methyl]benzothiazole], the melting point stood at 165 °C. The molecule also returned a Ki or IC50 activity class at human H4 receptor below 30 nM.

`CCCNC(=O)c1cccc(C(OC2CCN(C)CC2)c2nc3ccccc3s2)c1` (stereo not drawn) [Example 220, 3-[benzothiazol-2-yl(1-methylpiperidin-4-yloxy)methyl]-N-propylbenzamide] yielded a melting point of 60 °C. At human H4 receptor, this molecule yielded a Ki or IC50 activity class below 30 nM.
